Test results from US20020137929A1, “1 - (3-heterocyclylphenyl) isothiourea, -isourea, -guanidine and -amidine herbicidal agents” (Intellectual Property Department, BASF Aktiengesellschaft, priority 1998, published 2002).

Key:
SETVI (Foxtail, Green) = assay: Postemergence herbicidal evaluation; type: in vivo, Setaria viridis
How it was run: (§1)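 Rate range approx. 0.0156–0.500 kg/ha. Foliar application at 40 psi to ~2-week seedlings; surfactant 0.5% TWEEN 20 in 50/50 acetone/water. Evaluation 4–5 wk post-treatment by 0–9 visual injury score, means of replicate tests.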

[1] = system: SAGPY (Arrowhead (Pygmaea)); assay: Preemergence weed control under flooded paddy conditions; type: in vivo, Sagittaria pygmaea; details: rated 3-4 weeks after treatment
How it was run: (§2)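 Flooded-pot preemergence screen with silt loam and seeds in the upper 0.5 cm. Dose about 0.0313 to 0.500 kg/ha, delivered into flood water; visual 0-9 score after 3 to 4 weeks.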

GALAP (Galium) [2] = assay: Preemergence herbicidal evaluation; type: in vivo, Galium aparine; details: rated 4-5 weeks after treatment
How it was run: (§3)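 Preemergence soil application of compound, sprayed in aqueous acetone at rates equivalent to about 0.0156 to 0.500 kg per hectare onto freshly sown cups. Plant response was judged by eye on a 0-9 scale four to five weeks later.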

CYPIR (Rice Flatsedge) = assay: Preemergence weed control under flooded paddy conditions; type: in vivo, Cyperus iria; details: rated 3-4 weeks after treatment
How it was run: as §2

CYPSE (Flatsedge) [3] = assay: as above; type: in vivo, Cyperus serotinus; details: rated 3-4 weeks after treatment
How it was run: as §2

ZEAMX (Corn, Field) = assay: Preemergence herbicidal evaluation; type: in vivo, Zea mays; details: rated 4-5 weeks after treatment
How it was run: as §3

GALAP (Galium) [4] = assay: Postemergence herbicidal evaluation; type: in vivo, Galium aparine
How it was run: as §1

[5] = system: CHEAL (Lambsquarters, Common); assay: Postemergence herbicidal evaluation; type: in vivo, Chenopodium album
How it was run: as §1

CASOB (Sicklepod) [6] = assay: Postemergence herbicidal evaluation; type: in vivo, Cassia obtusifolia
How it was run: as §1

AMBEL (Ragweed, Common) = assay: Postemergence herbicidal evaluation; type: in vivo, Ambrosia artemisifolia
How it was run: as §1

CASOB (Sicklepod) [7] = assay: Preemergence herbicidal evaluation; type: in vivo, Cassia obtusifolia; details: rated 4-5 weeks after treatment
How it was run: as §3

ECHCG (Barnyardgrass) = assay: Postemergence herbicidal evaluation; type: in vivo, Echinochloa crus-galli
How it was run: as §1

ORYSAT (Rice, Tebonnet) = assay: Postemergence herbicidal evaluation; type: in vivo, Oryza sativa, (L.) Tebonnet
How it was run: as §1

CYPSE (Flatsedge) [8] = assay: Postemergence weed control under flooded paddy conditions; type: in vivo, Cyperus serotinus; details: postemergence weeds, 3-4 weeks after treatment
How it was run: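 Weeds 3 to 5 cm tall and rice seedlings at the 1.5 to 2.5 leaf stage were flooded, with water held 1.5 to 3 cm above the soil. Compounds in 50/50 v/v aqueous/acetone went into the flood water at about 0.0313 to 0.500 kg/ha. Visual 0-9 ratings versus control were made 3 to 4 weeks later.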

[9] = system: GLXMAW (Soybean, Williams); assay: Postemergence herbicidal evaluation; type: in vivo, Glycine max, (L.) Merr. cv Williams
How it was run: as §1

Q: Which “Postemergence herbicidal rating SETVI” value (SETVI (Foxtail, Green); Rate 0.0158 kg/ha) does the source give for `Cn1c(C(F)(F)F)cc(=O)n(-c2cc(N=C3SCC(=O)N3[C@@H](Cc3ccccc3)C(=O)O)c(Cl)cc2F)c1=O` [Compound 53, α-Benzyl-2-{{2-chloro-5-[3,6-dihydro-3-methyl-2,6-dioxo-4-(trifluoromethyl)-1(2H)-pyrimidinyl]-4-fluorophenyl}imino}-4-oxo-3-thiazolidineacetic acid, L-] here?
A: The value was 6.0.

Q: And the “Postemergence herbicidal rating SETVI” value (SETVI (Foxtail, Green); Rate 0.0315 kg/ha)?
A: The value was 6.0.

Q: And the “Postemergence herbicidal rating SETVI” value (SETVI (Foxtail, Green); Rate 0.0630 kg/ha)?
A: The value was 7.0.

Q: What about the “Herbicidal rating SAGPY” value ([1]; 0.0313 kg/ha) of the same molecule?
A: The value was 0.0.

Q: And the “Herbicidal rating SAGPY” value ([1]; 0.0625 kg/ha)?
A: Its value is 0.0.

Q: And the “Herbicidal rating SAGPY” value ([1]; 0.1250 kg/ha)?
A: Its value is 0.0.

Q: What about the “Herbicidal rating SAGPY” value ([1]; 0.2500 kg/ha) of the same molecule?
A: Its value is 0.0.

Q: What about the “Preemergence herbicidal rating GALAP” value (GALAP (Galium) [2]; rate 0.0313 kg/ha) of the same molecule?
A: The value was 0.0.

Q: What about the “Preemergence herbicidal rating GALAP” value (GALAP (Galium) [2]; rate 0.0625 kg/ha) of the same molecule?
A: Its value is 0.0.

Q: What about the “Preemergence herbicidal rating GALAP” value (GALAP (Galium) [2]; rate 0.1250 kg/ha) of the same molecule?
A: The value was 0.0.

Q: What about the “Preemergence herbicidal rating GALAP” value (GALAP (Galium) [2]; rate 0.2500 kg/ha) of the same molecule?
A: Its value is 7.0.

Q: What about the “Herbicidal rating CYPIR” value (CYPIR (Rice Flatsedge); 0.0313 kg/ha) of the same molecule?
A: The value was 2.0.

Q: And the “Herbicidal rating CYPIR” value (CYPIR (Rice Flatsedge); 0.0625 kg/ha)?
A: Its value is 2.0.

Q: And the “Herbicidal rating CYPIR” value (CYPIR (Rice Flatsedge); 0.1250 kg/ha)?
A: The value was 9.0.

Q: And the “Herbicidal rating CYPIR” value (CYPIR (Rice Flatsedge); 0.2500 kg/ha)?
A: Its value is 9.0.

Q: And the “Herbicidal rating CYPSE” value (CYPSE (Flatsedge) [3]; 0.0313 kg/ha)?
A: The value was 0.0.

Q: What about the “Herbicidal rating CYPSE” value (CYPSE (Flatsedge) [3]; 0.0625 kg/ha) of the same molecule?
A: The value was 0.0.

Q: And the “Herbicidal rating CYPSE” value (CYPSE (Flatsedge) [3]; 0.1250 kg/ha)?
A: Its value is 0.0.

Q: What about the “Herbicidal rating CYPSE” value (CYPSE (Flatsedge) [3]; 0.2500 kg/ha) of the same molecule?
A: Its value is 0.0.

Q: What about the “Preemergence herbicidal rating ZEAMX” value (ZEAMX (Corn, Field); rate 0.0313 kg/ha) of the same molecule?
A: The value was 1.0.

Q: And the “Preemergence herbicidal rating ZEAMX” value (ZEAMX (Corn, Field); rate 0.0625 kg/ha)?
A: The value was 1.0.

Q: What about the “Preemergence herbicidal rating ZEAMX” value (ZEAMX (Corn, Field); rate 0.1250 kg/ha) of the same molecule?
A: The value was 5.0.

Q: What about the “Preemergence herbicidal rating ZEAMX” value (ZEAMX (Corn, Field); rate 0.2500 kg/ha) of the same molecule?
A: Its value is 6.0.

Q: And the “Postemergence herbicidal rating GALAP” value (GALAP (Galium) [4]; Rate 0.0158 kg/ha)?
A: Its value is 3.0.

Q: And the “Postemergence herbicidal rating GALAP” value (GALAP (Galium) [4]; Rate 0.0315 kg/ha)?
A: The value was 7.0.

Q: And the “Postemergence herbicidal rating GALAP” value (GALAP (Galium) [4]; Rate 0.0630 kg/ha)?
A: Its value is 9.0.

Q: And the “Postemergence herbicidal rating CHEAL” value ([5]; Rate 0.0158 kg/ha)?
A: The value was 7.0.

Q: And the “Postemergence herbicidal rating CHEAL” value ([5]; Rate 0.0315 kg/ha)?
A: The value was 9.0.

Q: What about the “Postemergence herbicidal rating CHEAL” value ([5]; Rate 0.0630 kg/ha) of the same molecule?
A: The value was 9.0.

Q: And the “Postemergence herbicidal rating CASOB” value (CASOB (Sicklepod) [6]; Rate 0.0158 kg/ha)?
A: Its value is 4.0.

Q: What about the “Postemergence herbicidal rating CASOB” value (CASOB (Sicklepod) [6]; Rate 0.0315 kg/ha) of the same molecule?
A: Its value is 7.0.

Q: What about the “Postemergence herbicidal rating CASOB” value (CASOB (Sicklepod) [6]; Rate 0.0630 kg/ha) of the same molecule?
A: The value was 9.0.

Q: What about the “Postemergence herbicidal rating AMBEL” value (AMBEL (Ragweed, Common); Rate 0.0158 kg/ha) of the same molecule?
A: The value was 9.0.

Q: What about the “Postemergence herbicidal rating AMBEL” value (AMBEL (Ragweed, Common); Rate 0.0315 kg/ha) of the same molecule?
A: The value was 9.0.

Q: What about the “Postemergence herbicidal rating AMBEL” value (AMBEL (Ragweed, Common); Rate 0.0630 kg/ha) of the same molecule?
A: The value was 9.0.

Q: What about the “Preemergence herbicidal rating CASOB” value (CASOB (Sicklepod) [7]; rate 0.0313 kg/ha) of the same molecule?
A: The value was 0.0.

Q: And the “Preemergence herbicidal rating CASOB” value (CASOB (Sicklepod) [7]; rate 0.0625 kg/ha)?
A: The value was 0.0.

Q: What about the “Preemergence herbicidal rating CASOB” value (CASOB (Sicklepod) [7]; rate 0.1250 kg/ha) of the same molecule?
A: The value was 1.0.

Q: What about the “Preemergence herbicidal rating CASOB” value (CASOB (Sicklepod) [7]; rate 0.2500 kg/ha) of the same molecule?
A: Its value is 1.0.

Q: And the “Postemergence herbicidal rating ECHCG” value (ECHCG (Barnyardgrass); Rate 0.0158 kg/ha)?
A: The value was 2.0.

Q: What about the “Postemergence herbicidal rating ECHCG” value (ECHCG (Barnyardgrass); Rate 0.0315 kg/ha) of the same molecule?
A: The value was 3.0.

Q: And the “Postemergence herbicidal rating ECHCG” value (ECHCG (Barnyardgrass); Rate 0.0630 kg/ha)?
A: Its value is 9.0.

Q: What about the “Postemergence herbicidal rating ORYSAT” value (ORYSAT (Rice, Tebonnet); Rate 0.0158 kg/ha) of the same molecule?
A: The value was 2.0.

Q: And the “Postemergence herbicidal rating ORYSAT” value (ORYSAT (Rice, Tebonnet); Rate 0.0315 kg/ha)?
A: Its value is 2.5.

Q: And the “Postemergence herbicidal rating ORYSAT” value (ORYSAT (Rice, Tebonnet); Rate 0.0630 kg/ha)?
A: Its value is 3.5.

Q: And the “Herbicidal rating CYPSE” value (CYPSE (Flatsedge) [8]; rate 0.0313 kg/ha)?
A: Its value is 0.0.

Q: And the “Herbicidal rating CYPSE” value (CYPSE (Flatsedge) [8]; rate 0.0625 kg/ha)?
A: Its value is 0.0.

Q: What about the “Herbicidal rating CYPSE” value (CYPSE (Flatsedge) [8]; rate 0.1250 kg/ha) of the same molecule?
A: The value was 0.0.

Q: What about the “Herbicidal rating CYPSE” value (CYPSE (Flatsedge) [8]; rate 0.2500 kg/ha) of the same molecule?
A: Its value is 0.0.

Q: And the “Postemergence herbicidal rating GLXMAW” value ([9]; Rate 0.0158 kg/ha)?
A: Its value is 9.0.

Q: What about the “Postemergence herbicidal rating GLXMAW” value ([9]; Rate 0.0315 kg/ha) of the same molecule?
A: The value was 9.0.

Q: And the “Postemergence herbicidal rating GLXMAW” value ([9]; Rate 0.0630 kg/ha)?
A: Its value is 9.0.
